Where two headings read alike, the source gives them in different places.
Key:
[1] = Crystallinity of injection moulded articles; type: physicochemical; details: 0.5% salt, mould 120 °C, cycling time 12 seconds, based on heat of fusion 24 Cal/g
Procedure: The extruded product of Example 6 has been dried (120° C.) in a ventilated oven. The obtained pellets have been moulded by injection in a Buhler Rover 63 machine.
Different cycling times have been experimented.

[2] = Half-crystallisation time (t1/2), isothermal DSC; type: physicochemical
Procedure: A DSC 2 Perkin Elmer scanning calorimeter was used.
10 mg of the sample of polymer material are placed in a capsule and introduced into the apparatus, wherein the sample is quickly heated to a temperature of 290° C. at which it is maintained during 1 minute.
The molten polymer material is then very quickly cooled by means of liquid air (at a rate of 320° C. per minute) until the crystallisation temperature is reached.
The crystallisation isotherm is registered on a temperature-time graph and the peak appearing on the registered isotherm is taken as the half-crystallisation time (t1/2).

[3] = ΔT = Tc(cooling) - Tn(heating), DSC; type: physicochemical
Procedure: An alternative method for assessing the effectiveness of nucleation of an additive is to compare the difference between the value of the crystallisation peak on cooling (Tc) with that on heating (Tn) for a composition containing an ionisable salt. The value obtained from this comparison, Tc(cooling) -Tn(heating) is termed ΔT. […] Samples of polyester together with 1% of the salt under test were mixed in a 2-roll mill at 270° C. for 5 minutes. The sample produced was pressed into 2 mm thick sheets at 270° C. for 3 minutes and then cooled to room temperature. 10 mg of the sample was placed in a capsule and rapidly heated to 290° C. After maintaining this temperature for 1 minute the capsule was quenched in water. The crystallisation peak temperatures on heating (Tn) and cooling (Tc) were determined using heating and cooling rates of 10° C./minute on a Perkin Elmer DSC 2 machine.

[4] = Solubility parameter δ of the acid
[5] = Degradation constant K (melt degradation performance); type: physicochemical
Procedure: (§1) The melt degradation performance is a measure of the extent of degradation under molten conditions. A convenient method of quantifying the performance is by measuring the "K value". A method for determining this value in the molten state using an Instron Capillary rheometer is given in a paper by J. Devaux et al in Makromol.
(§2) This method is carried out on samples prepared by reacting the salt with the polyester on a 2 roll-mill at a temperature above the melting point of the polyester for 5 minutes and then pressing the product obtained into a 2 mm thick sheet using the same temperature for 3 minutes before cooling to room temperature. The method is described for polyethylene terephthalate but can be readily adapted for other polyesters.
For polyethylene terephthalate the K value in the presence of salt should be less than 60.

[6] = water; cited from earlier work
[7] = Crystallisation peak temperature on heating (Tn), DSC, block copolymer; type: physicochemical; details: 1% salt, 2-roll mill 270 °C 2 minutes, block copolymer; heating rate 10 °C/minute
Procedure: A block copolymer containing 5% by weight of polyethylene glycol units of molecular weight 1540 in chip form was blended with a solution of the sodium salt of o-chlorobenzoic acid to give a salt concentration of 1% by weight of the polyester. Samples were prepared for DSC analysis using the procedure of Example 15.
(§3) The polymer used in Example 16 and 1% of the disodium salt of o-hydroxy benzoic acid were compounded on a 2-roll mill at 270° C. for 2 minutes. […] (measured at a heating rate of 10° C./minute).

[8] = Degradation constant K, block copolymer; type: physicochemical; details: 1% salt, 2-roll mill 270 °C 2 minutes, compared with polyester itself
Procedure: as §1, with “Makromol. Chem. 179, 2201-2209 (1978).” for “Makromol.”
as §2, §3

[9] = End group determination, block copolymer; type: physicochemical; details: 1% salt, 2-roll mill 270 °C 2 minutes
Procedure: The total number of end groups in the polyester were found by determining the intrinsic viscosity of the polyester and using the correlation between I.V. and number of end groups given in Transactions of the Faraday Societ 1961, Volume 57, pages 150 to 159. The numbers of hydroxyl and carboxyl groups were also determined according to the procedure given in this paper.
as §3

[10] = Degradation constant K (melt degradation performance); type: physicochemical; details: 1% salt deposited from solution on PET (Examples 13-15); listed as disodium salt of o-hydroxy benzoic acid
[11] = Crystallisation peak temperature on heating (Tn), DSC; type: physicochemical; details: 1% salt deposited from solution on PET, pressed 280 °C 1 minute; heating rate 16 °C/minute; listed as disodium salt of o-hydroxy benzoic acid
Procedure: In one such DSC technique the crystallisation peak temperature difference, Tn(composition)--Tn(polyester) is determined by measuring the crystallisation peak temperatures on heating for the composition in comparison with the polyester of the composition not containing the ionisable salt. The detailed procedure is as follows. Compositions were prepared from the polyester and the additive by mixing on a 2-roll mill at 300° C. for 2 minutes. The sample was taken from the mill and pressed into a film in a compression moulding machine. 10 mg samples of the composition were placed in a capsule, rapidly heated to 290° C. and maintained at that temperature for 1 minute. The capsule was then dropped into water to quench the polymer and prevent crystallisation. The sample was then placed in a Perkin Elmer DSC 2 machine and heated at a rate of 10° C./minute until reaching a temperature of 290° C. The crystallisation peak temperature observed on this heating cycle is recorded and compared with the value for the polyester not containing the additive.
Samples of polyethylene terephthalate (I.V. =0.73) containing 1% of the salts listed in Table 2 were prepared by compounding at 300° C. on a 2-roll mill for 2 minutes. The samples were evaluated to determine Tn(composition-Tn(polyester), the total number of end groups, the number of carboxylate groups and the number of hydroxyl and carboxyl groups.
The salts listed in Table 3 were deposited from solution on the surface of polyethylene terephthalate chip to give a concentration of 1% by weight of salt. The product was dried under vcuum at 96° C. for 3 hours. The compositions were pressed into film using a temperature of 280° C. for 1 minute. The DSC measurements were made after quenching from the melt to prevent crystallisation and using a heating rate of 16° C./minute.
1% by weight of the sodium salt of saccharin was deposited on the surface of granules of a polyethylene terephthalate homopolymer of I.V. =0.73 by evaporating an aqueous solution of the salt from the granules by drying at 96° C. under vacuum for 3 hours. The granules obtained were compression moulded into film by pressing at 280° C. for 60 second. The film was used for measurements of Tn at a heating rate of 16° C./minute.
The effect of the salts listed in Table 4 was determined by taking granules of a polymer of poly(ethylene terephthalate) homopolymer having an intrinsic viscosity of 0.73 and evaporating a solution of the salt in methanol or water from the surface of the granules by drying at 96° C. under vacuum for 3 hours. The proportions of polymer and solution used were such as to give a concentration of 1% of salt by weight of the final dry composition. The granules obtained were compression-moulded into film at 280° C. for various periods of time. The film was used for measurement of Tn as hereinbefore described.
Two samples of polyethylene terephthalate chip (I.V. =0.73) were coated from solution with 1% of the sodium salt of o-hydroxybenzoic acid and the disodium salt of the same acid respectively. After drying for 3 hours in a vacuum oven at 95° C. films were prepared by pressing the products for 1 minute at 280° C.

SMILES: O=C([O-])c1ccc([N+](=O)[O-])cc1Cl.[Na+]
- crystallinity [1]: 40%
- t1/2 (sec) 110° C. [2]: 90 s
- t1/2 (sec) 120° C. [2]: 48 s
- ΔT [3]: 103
- δ × pKH.sbsb.2O [4]: 26
- K [5]: 39
- pKH.sbsb.2O [6]: 2

SMILES: O=C(O)c1ccccc1O [ortho-ONa-benzoic acid]
- Tn [7]: 100 °C
- K value [8]: less than that for the polyester itself
- t1/2 (sec) 110° C. [2]: 70 s
- t1/2 (sec) 120° C. [2]: 49 s
- total number of end groups determined from the intrinsic viscosity [9]: 137
- ΔT ([3]; 1% salt in PET, 2-roll mill 270 °C 5 min, 10 °C/minute): 110 °C
- K ([5]; 1% salt in PET, 2-roll mill 270 °C 5 min, molten state 290 °C): 24
- K [10]: 24
- Tn (16° C./min) [11]: 108 °C

From US4393178A, “Fast crystallizing polyester compositions” (priority 1979, dated 1983)
